Molecular target: human P2X3 receptor (Homo sapiens (Human), UniProt P56373)
Experiment: P2X3 receptor inhibition, ATP-evoked Fluo-3 calcium fluorescence (FDSS 3000)
Type: cell-based
Conditions: C6BU-1 cell transfected with human P2X3 receptor gene; ATP-evoked Fluo-3 fluorescence
Summary of the method: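 C6BU-1 cells stably transfected with human P2X3, loaded with 4 μM Fluo-3-AM for 1 h at 37 °C in HEPES buffer pH 7.5 with probenecid. Compound added 5 min before 40 nM ATP solution; fluorescence followed 3 min. IC50 from ratio of peak post-ATP to baseline fluorescence.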

human P2X3 receptor, sequence (P56373 whole entry): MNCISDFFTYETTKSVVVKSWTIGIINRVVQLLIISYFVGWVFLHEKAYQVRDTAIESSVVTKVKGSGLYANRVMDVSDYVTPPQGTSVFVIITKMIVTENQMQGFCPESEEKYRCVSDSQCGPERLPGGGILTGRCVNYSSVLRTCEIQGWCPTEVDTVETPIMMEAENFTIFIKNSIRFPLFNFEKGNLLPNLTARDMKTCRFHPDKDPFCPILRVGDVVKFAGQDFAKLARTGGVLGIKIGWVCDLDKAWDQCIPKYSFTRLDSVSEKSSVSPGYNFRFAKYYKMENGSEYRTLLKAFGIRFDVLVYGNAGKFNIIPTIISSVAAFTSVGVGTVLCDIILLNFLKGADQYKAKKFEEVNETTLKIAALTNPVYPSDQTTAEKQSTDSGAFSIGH

Row | SMILES | IC50 [µM]
1 | CC(C)c1n[nH]c2c1C(c1ccccc1OCC(=N)NO)N(c1ccc(-c3ccsc3)cc1)C2=O (stereo not shown) [II-185] | 0.011
2 | CC(C)CC(=O)C1=C(O)C(=O)N(c2ccc(-c3ccon3)cc2)C1c1ccccc1OC(F)F (stereo not shown) [Compound I-307] | 0.158
3 | COCCOc1ccccc1[C@@H]1C(C(=O)C(C)C)=C(O)C(=O)N1c1ccc(-c2ccoc2)cc1 [Compound I-208] | 0.014
4 | COc1ccc(F)cc1C1c2c(C(C)(C)C)n[nH]c2C(=O)N1c1ccc(-c2ccon2)cc1 (stereo not shown) [II-062] | 0.112
5 | COc1ncccc1C1C(C(=O)C(C)C)=C(O)C(=O)N1c1ccc(-c2ccsc2)cc1 (stereo not shown) [Compound I-187] | 0.086
6 | COCCOc1ccccc1[C@H]1C(C(=O)C(C)C)=C(O)C(=O)N1c1ccc(-c2ccoc2)cc1 [Compound I-209] | 0.234
7 | COc1ccccc1C1C(C(=O)c2cc[nH]c2)=C(O)C(=O)N1c1ccc(-c2csc(C)c2)cc1 (stereo not shown) [Compound I-553] | 0.337
8 | COCCOCc1ncccc1C1C(C(=O)C(C)(C)C)=C(O)C(=O)N1c1ccc(-c2ccsc2)cc1 (stereo not shown) [Compound I-168] | 0.12
9 | COc1ncccc1C1c2c(C(C)(C)C)n[nH]c2C(=O)N1c1ccc(-c2ccoc2)cn1 (stereo not shown) [II-261] | 0.14
10 | CSc1ccc(N2C(=O)C(O)=C(C(=O)C(C)C)C2c2ccccc2OCCCO)cc1 (stereo not shown) [Compound I-476] | 0.051
11 | COc1ccc(C(=O)C2=C(O)C(=O)N(c3ccc(-c4ccsc4)cc3)C2C2COC(C)(C)OC2)cn1 (stereo not shown) [Compound I-288] | 0.036
12 | COc1ccccc1C1c2c(C(C)(C)C)n[nH]c2C(=O)N1c1ccc(-c2ccsc2)cn1 (stereo not shown) [II-248] | 0.013
13 | COc1ccccc1C1c2c(C(C)(C)C(=O)O)n[nH]c2C(=O)N1c1ccc(-c2ccsc2)cc1 (stereo not shown) [II-165] | 0.041
14 | CSc1ccccc1C1C(C(=O)C(C)C)=C(O)C(=O)N1c1ccc(-c2csc(C)c2)cc1 (stereo not shown) [Compound I-559] | 0.04
15 | Cc1nc(-c2ccc(N3C(=O)C(O)=C(S(=O)(=O)c4ccccc4)C3C3CCCCC3)cc2)no1 (stereo not shown) [Compound I-499] | 0.398
16 | Cc1ccc(-c2ccc(N3C(=O)C(O)=C(C(=O)CC(C)C)C3c3ccccc3OCCO)cc2)s1 (stereo not shown) [Compound I-328] | 0.065
17 | COc1ncccc1C1c2c(C(C)(C)C)n[nH]c2C(=O)N1c1ccc(-c2nc(C)no2)cc1 (stereo not shown) [II-195] | 0.944
18 | CCOC(=O)C1C(C(=O)C(C)C)=C(O)C(=O)N1c1ccc(-c2ccsc2)cc1 (stereo not shown) [Compound I-216] | 0.679
19 | CC(C)C(=O)C1=C(O)C(=O)N(c2ccc(-c3ccoc3)cc2)C1c1cccnc1OCCO (stereo not shown) [Compound I-233] | 0.124
20 | COc1ccccc1C1C(C(=O)C(C)(C)C)=C(O)C(=O)N1c1ccc(SC)cc1 (stereo not shown) [Compound I-052] | 0.187
21 | COc1ncccc1C1C(C(=O)C(C)(C)C)=C(O)C(=O)N1c1ccc(-c2ccco2)cc1 (stereo not shown) [Compound I-117] | 0.383
22 | CC(C)(C)C(=O)C1=C(O)C(=O)N(c2ccc(-c3ccon3)cc2)C1c1ccccc1OCC(=O)O (stereo not shown) [Compound I-134] | 0.776
23 | COCCOc1ncccc1C1C(C(=O)C(C)(C)C)=C(O)C(=O)N1c1ccc(-c2ccoc2)cc1 (stereo not shown) [Compound I-164] | 0.074
24 | COCCOc1ccccc1C1C(S(=O)(=O)C(C)C)=C(O)C(=O)N1c1ccc(-c2ccsc2)cc1 (stereo not shown) [Compound I-563] | 0.042
25 | Cc1ccc(-c2ccc(N3C(=O)C(O)=C(C(=O)CC(C)C)C3c3cccnc3C(N)=O)cc2)s1 (stereo not shown) [Compound I-572] | 0.171

Row | SMILES | IC50 [µM]
26 | COCCCOc1ccccc1C1C(C(=O)C(C)C)=C(O)C(=O)N1c1ccc(SC)cc1 (stereo not shown) [Compound I-484] | 0.091
27 | CC(C)(C)c1n[nH]c2c1C(c1ccccc1OCCO)N(c1ccc(-c3ccco3)cc1)C2=O (stereo not shown) [II-105] | 0.013
28 | Cc1nc(-c2ccc(N3C(=O)c4[nH]nc(C(C)(C)C)c4C3c3ccccc3OCCO)cc2)no1 (stereo not shown) [II-017] | 0.054
29 | CC(C)c1n[nH]c2c1C(c1cccnc1OCCO)N(c1ccc(-c3ccsc3)cc1)C2=O (stereo not shown) [II-045] | 0.016
30 | COc1ccc(S(=O)(=O)C2=C(O)C(=O)N(c3ccc(-c4noc(C)n4)cc3)C2C2CCCCC2)cc1 (stereo not shown) [Compound I-560] | 0.275
31 | Cc1nc(-c2ccc(NC3=CC(C4CCCCC4)N(c4ccc(-c5noc(C)n5)cc4)C3=O)cc2)no1 (stereo not shown) [Compound I-469] | 0.646
32 | COCCc1ccccc1C1C(C(=O)C(C)C)=C(O)C(=O)N1c1ccc(-c2ccsc2)cc1 (stereo not shown) [Compound I-247] | 0.015
33 | COCCOc1ncccc1[C@@H]1C(C(=O)C(C)C)=C(O)C(=O)N1c1ccc(-c2ccc(C)s2)cc1 [Compound I-472] | 0.007
34 | COCCOc1ccccc1C1C(C(=O)C(C)(C)C)=C(O)C(=O)N1c1ccc(-c2ccon2)cc1 (stereo not shown) [Compound I-098] | 0.37
35 | COCc1ccccc1C1C(C(=O)C(C)C)=C(O)C(=O)N1c1ccc(-c2noc(C)n2)cc1 (stereo not shown) [Compound I-310] | 0.337
36 | CC(C)CC(=O)C1=C(O)C(=O)N(c2ccc(SC(F)(F)F)cc2)C1c1ccccc1OC(C)C (stereo not shown) [Compound I-447] | 0.128
37 | CCOC(=O)c1ccc(N2C(=O)c3[nH]nc(C(C)(C)C)c3C2c2ccccc2OC)cc1 (stereo not shown) [II-057] | 0.017
38 | CC(C)Oc1ccccc1C1c2c(C(C)(C)C)n[nH]c2C(=O)N1c1ccc(-c2ccon2)cc1 (stereo not shown) [II-019] | 0.021
39 | COCCOc1ccccc1C1C(C(=O)C(C)(C)C)=C(O)C(=O)N1c1ccc(-c2cccs2)cc1 (stereo not shown) [Compound I-123] | 0.013
40 | Cc1cc(-c2ccc(N3C(=O)C(O)=C(C(=O)CC(C)C)C3c3ccccc3C(=O)N(C)C)cc2)cs1 (stereo not shown) [Compound I-404] | 0.071
41 | COc1ccc(-c2n[nH]c3c2C(c2ccccc2OCCO)N(c2nc4cc(OC)ccc4s2)C3=O)cc1 (stereo not shown) [II-117] | 0.348
42 | CSc1ccc(N2C(=O)C(O)=C(C(=O)CC(C)C)C2c2ccccc2OCC#N)cc1 (stereo not shown) [Compound I-511] | 0.117
43 | CC(C)(C)c1n[nH]c2c1C(c1ccccc1OCC(=O)O)N(c1ccc(-c3ccsc3)cc1)C2=O (stereo not shown) [II-023] | 0.004
44 | COc1ncccc1C1c2c(C(C)(C)C)n[nH]c2C(=O)N1c1ccc(Br)cn1 (stereo not shown) [II-259] | 0.41
45 | CC(C)C(=O)C1=C(O)C(=O)N(c2ccc(-c3ccoc3)cc2)C1c1cccnc1OCCCO (stereo not shown) [Compound I-566] | 0.061
46 | Cc1ccc(-c2ccc(N3C(=O)C(O)=C(C(=O)CC(C)C)C3c3ccccc3OC(C)C)cc2)s1 (stereo not shown) [Compound I-402] | 0.08
47 | COCCOc1ncccc1C1c2c(n[nH]c2C(C)C)C(=O)N1c1ccc(-c2nc(C)no2)cc1 (stereo not shown) [II-281] | 0.664
48 | COc1ccccc1C1C(C(=O)C(C)(C)C)=C(O)C(=O)N1c1ccc(SC(F)(F)F)cc1 (stereo not shown) [Compound I-047] | 0.221
49 | COCCOc1ccccc1C1C(C(=O)CC(C)C)=C(O)C(=O)N1c1ccc(-c2cc(C)no2)cc1 (stereo not shown) [Compound I-346] | 0.677
50 | COc1ccc(C(=O)C2=C(O)C(=O)N(c3ccc(-c4cccn4C)cc3)C2C2CCCCC2)cc1 (stereo not shown) [Compound I-014] | 0.134

Row | SMILES | IC50 [µM]
51 | COc1ccc(C(=O)C2=C(O)C(=O)N(c3nc4cc(OC)ccc4s3)C2c2ccccc2OCCO)cc1 (stereo not shown) [Compound I-125] | 0.11
52 | CSc1ccc(N2C(=O)c3[nH]nc(C(C)(C)C)c3C2c2cccnc2OCCO)cc1 (stereo not shown) [II-040] | 0.07
53 | O=C1C(O)=C(S(=O)(=O)c2ccccc2)C(C2CCCCC2)N1c1ccc(-c2ccon2)cc1 (stereo not shown) [Compound I-482] | 0.333
54 | COc1ccccc1C1C2C(=O)C(C)(C)COC2(O)C(=O)N1c1ccc(-c2ccsc2)cn1 (stereo not shown) [Compound I-095] | 0.195
55 | CC(C)C(=O)C1=C(O)C(=O)N(c2ccc(-c3ccsc3)cc2)C1c1ccccn1 (stereo not shown) [Compound I-219] | 0.324
56 | COCc1ncccc1C1C(C(=O)C(C)(C)C)=C(O)C(=O)N1c1ccc(-c2ccsc2)cc1 (stereo not shown) [Compound I-162] | 0.041
57 | COc1ccccc1C1c2c(C(C)(C)CO)n[nH]c2C(=O)N1c1ccc(-c2nccs2)cc1 (stereo not shown) [II-141] | 0.022
58 | COc1ccccc1C1C(C(=O)CC(C)C)=C(O)C(=O)N1c1ccc(C2=NCCS2)cc1 (stereo not shown) [Compound I-412] | 0.31
59 | COCCOc1ccccc1C1C(C(=O)C(C)C)=C(O)C(=O)N1c1ccc(-c2csc(C)n2)cc1 (stereo not shown) [Compound I-424] | 0.519
60 | COCOc1ccccc1C1C(C(=O)CC(C)C)=C(O)C(=O)N1c1ccc(-c2noc(C)n2)cc1 (stereo not shown) [Compound I-316] | 0.13
61 | CN(C)c1ccccc1C1C(C(=O)C(C)(C)C)=C(O)C(=O)N1c1ccc(-c2ccon2)cc1 (stereo not shown) [Compound I-070] | 0.519
62 | COc1ccccc1C1C(C(=O)C(C)(C)C)=C(N)C(=O)N1c1ccc(-c2ccon2)cc1 (stereo not shown) [Compound I-102] | 0.134
63 | COc1ccccc1[C@H]1C(C(=O)CC(C)C)=C(O)C(=O)N1c1ccc(-c2ccsc2)cc1 [Compound I-280] | 0.477
64 | COc1ncccc1C1c2c(C(C)(C)C)n[nH]c2C(=O)N1c1ccc(-c2ccsc2)cc1 (stereo not shown) [II-223] | 0.023
65 | COCCOc1ncccc1C1C(C(=O)C(C)(C)C)=C(O)C(=O)N1c1ccc(-c2ccon2)cc1 (stereo not shown) [Compound I-139] | 0.93
66 | COc1ncccc1C1C(C(=O)C(C)C)=C(O)C(=O)N1c1ccc(-c2ccc(C)s2)cc1 (stereo not shown) [Compound I-332] | 0.281
67 | CNC(=O)COc1ccccc1C1c2c(C(C)(C)C)n[nH]c2C(=O)N1c1ccc(-c2ccon2)cc1 (stereo not shown) [II-077] | 0.237
68 | CN(C)C(=O)COc1ccccc1C1c2c(C(C)(C)C)n[nH]c2C(=O)N1c1ccc(-c2ccsc2)cc1 (stereo not shown) [II-166] | 0.007
69 | COCOc1ccccc1C1C(C(=O)CC(C)C)=C(O)C(=O)N1c1ccc(-c2ccc(C)o2)cc1 (stereo not shown) [Compound I-382] | 0.006
70 | COc1ccccc1C1c2c(C(C)(C)C)n[nH]c2C(=O)N1c1ccc(-c2ccc(C)s2)cc1 (stereo not shown) [II-275] | 0.027
71 | COc1ccccc1C1C(C(=O)C(C)C)=C(O)C(=O)N1c1ccc(-c2cccs2)cc1 (stereo not shown) [Compound I-214] | 0.022
72 | COc1ccccc1C1c2c(C(C)(C)C)n[nH]c2C(=O)N1c1ccc(C(C)=O)cc1 (stereo not shown) [II-155] | 0.322
73 | CC(C)c1n[nH]c2c1C(c1ccccc1OCCS(C)(=O)=O)N(c1ccc(-c3ccsc3)cc1)C2=O (stereo not shown) [II-245] | 0.006

Reference: patent publication US8575197B2, “Pyrolinone derivative and pharmaceutical composition comprising the same” (Shionogi & Co., Ltd., priority 2008, dated 2013)
